Test results published in patent US20070299102A1, “Diphenyl Ox-Indol-2-One Compounds and Their Use in the Treatment of Cancer” (Topo Target A/S, priority 2004, published 2007).
Entries after “also recorded” stand apart in the source; their conditions may differ.

Legend:
[1] = system: panel of prostate cancer cell lines; assay: Alamar Blue cell proliferation assay, summary over the prostate panel; format: cell-based; conditions: 10% FBS
Procedure: (§1) Cell culture: All cell lines except MCF10A are maintained in RPMI medium containing 10% foetal Bovine Serum (FBS) 100 U/ml penicillin, and 100 μg/ml streptomycin. MCF10A is maintained in mammary epithelial growth medium (MEGM) with singlequot addition (BPE, hydrocortisone, hEGF, insulin, gentamicin/amphotericin-B) (Clonetics/Cambrex Bio Science). All cell lines are incubated at 37° C., 5% CO2, and 95% humidity.
(§2) Alamar Blue cell proliferation assay: Cells are plated in black cell culture treated Packard/Perkin Elmer 96-viewplates in 100 μl/well RPMI medium containing […], 100 U/ml penicillin, and 100 μg/ml streptomycin. Cell proliferation has been estimated in triplicate for all cell lines in medium containing either 1% FBS or 10% FBS. […]
(§3) The number of viable cells is estimated using an Alamar Blue assay that measures mitochondrial activity. […] Alamar Blue signal is read in a fluorescence plate reader using a 590 nm emission filter and a 530 nm excitation filter.
(§4) Data handling/calculations: Data are normalised to values from 0% activity (S0) to 100% activity (Smax). Average values for S0 and Smax are calculated and used to calculate percent activity (PCTACT) in the assays by the formula: PCTACT=(Xraw−Smax)/(S0−Smax)*100.

[2] = system: panel of human breast cancer cell lines; assay: Alamar Blue cell proliferation assay, summary over the breast panel; format: cell-based; conditions: 10% FBS; FIGS. 9, 10 and 11
Procedure: as §1, §2, §3, §4

[3] = system: PC-3 prostate cancer cell line; assay: Alamar Blue cell proliferation assay; format: cell-based, human
Procedure: as §1, §2, §3, §4

[4] = system: ZR75-1 breast cancer cell line; assay: Alamar Blue cell proliferation assay; format: cell-based; conditions: Homo sapiens, ZR-75-1; ZR75-1, 10% FBS, 72 hours; read-out: EC50 (nM); IC50 values for inhibition of cell proliferation
Procedure: as §1
(§5) Alamar Blue cell proliferation assay: Cells are plated in black cell culture treated Packard/Perkin Elmer 96-viewplates in 100 μl/well RPMI medium containing […], 100 U/ml penicillin, and 100 μg/ml streptomycin. Cell proliferation has been estimated in triplicate for all cell lines in medium containing either 1% FBS or 10% FBS. The day after plating, the growth medium is changed to either 100 μl/well RPMI containing 1% FBS, 100 U/ml penicillin, 100 μg/ml streptomycin and 25 μg/ml gentamicin or to 100 μl/well RPMI containing 10% FBS, 100 U/ml penicillin, 100 μg/ml streptomycin and 25 μg/ml gentamicin. Compounds are added in 9 point half-log dilution series at concentrations indicated in the graphs. […] Briefly, compounds are diluted in compound plates in growth medium containing either 1% FBS or 10% FBS corresponding to the medium in the plates. Compounds are transferred to the cell plates by transfer of 100 μl/well, resulting in a total volume of 200 μl/well containing compound at concentrations indicated in graphs and 0.25% DMSO. Terfenedine is used as a control for maximal cell kill in wells containing 50 μM terfenedine and 0.5% DMSO (Smax). Negative control wells (So) contain medium with 0.25% DMSO.
(§6) After compound addition cell plates are incubated undisturbed for 72 hours at 37° C., 5% CO2, and 95% humidity.
(§7) The number of viable cells is estimated using an Alamar Blue assay that measures mitochondrial activity. The medium is decanted and replaced with 150 μl/well RPMI medium without phenol-red containing 100 U/ml penicillin, and 100 μg/ml streptomycin and 10% Alamar Blue. The plates are placed in the incubator at 37° C., 5% CO2, and 95% humidity for 2 hours. Then, plates are moved to a table and allowed to cool to room temperature without stacking the plates. Alamar Blue signal is read in a fluorescence plate reader using a 590 nm emission filter and a 530 nm excitation filter.
as §4

[5] = system: MDA-MB-231 breast cancer cell line; assay: Alamar Blue cell proliferation assay; format: cell-based; conditions: Homo sapiens; MDA-MB-231, 10% FBS, 72 hours; read-out: EC50 (nM); IC50 values for inhibition of cell proliferation
Procedure: as §1, §5, §6, §7, §4

[6] = system: PC-3/M prostate cancer cell line; assay: Alamar Blue cell proliferation assay; format: cell-based; conditions: Homo sapiens, 10% FBS, 72 hours, read-out: EC50 (nM), IC50 values for inhibition of cell proliferation
Procedure: as §1, §5, §6, §7, §4

[7] = system: T47-D breast cancer cell line; assay: Alamar Blue cell proliferation assay; format: cell-based; conditions: Homo sapiens, T47D, 72 h, 10% FBS, read-out: EC50 (nM), IC50 values for inhibition of cell proliferation
Procedure: as §1, §5, §6, §7, §4

[8] = system: non-transformed human breast epithelial cell line MCF10A; assay: Alamar Blue cell proliferation assay; format: cell-based; conditions: MCF-10A, serum-free MEGM medium, 72 hours, read-out: EC50 (nM), IC50 values for inhibition of cell proliferation
Procedure: as §1, §5, §6, §7, §4

[9] = system: MDA-MB-468 breast cancer cell line; assay: Alamar Blue cell proliferation assay; format: cell-based; conditions: Homo sapiens, MDA-MB-468, 72 h, MDA-MB-468, 10% FBS, read-out: EC50 (nM), IC50 values for inhibition of cell proliferation
Procedure: as §1, §5, §6, §7, §4

[10] = system: BT-474 breast cancer cell line; assay: Alamar Blue cell proliferation assay; format: cell-based; conditions: Homo sapiens, BT-474, 72 h, BT-474, 10% FBS, read-out: EC50 (nM), IC50 values for inhibition of cell proliferation
Procedure: as §1, §5, §6, §7, §4

[11] = system: MDA-MB-453 breast cancer cell line; assay: Alamar Blue cell proliferation assay; format: cell-based; conditions: Homo sapiens, MDA-MB-453, 72 h, MDA-MB-453, 10% FBS, read-out: EC50 (nM), IC50 values for inhibition of cell proliferation
Procedure: as §1, §5, §6, §7, §4

[12] = system: MDA-MB-435S breast cancer cell line; assay: Alamar Blue cell proliferation assay; format: cell-based; conditions: Homo sapiens, 10% FBS, 72 hours, read-out: EC50 (nM), IC50 values for inhibition of cell proliferation
Procedure: as §1, §5, §6, §7, §4

[13] = system: HCC-1954 breast cancer cell line; assay: Alamar Blue cell proliferation assay; format: cell-based; conditions: Homo sapiens, HCC1954, 72 h, HCC-1954, 10% FBS, read-out: EC50 (nM), IC50 values for inhibition of cell proliferation
Procedure: as §1, §5, §6, §7, §4

[14] = system: SKBr-3 breast cancer cell line; assay: Alamar Blue cell proliferation assay; format: cell-based; conditions: Homo sapiens, SK-BR-3, 72 h, SKBr-3, 10% FBS, read-out: EC50 (nM), IC50 values for inhibition of cell proliferation
Procedure: as §1, §5, §6, §7, §4

[15] = system: BT-549 breast cancer cell line; assay: Alamar Blue cell proliferation assay; format: cell-based; conditions: Homo sapiens, BT-549, 72 h, BT-549, 10% FBS, read-out: EC50 (nM), IC50 values for inhibition of cell proliferation
Procedure: as §1, §5, §6, §7, §4

[16] = system: DU-145 prostate cancer cell line; assay: Alamar Blue cell proliferation assay; format: cell-based; conditions: Homo sapiens; DU-145, 10% FBS, 72 hours; read-out: EC50 (nM); IC50 values for inhibition of cell proliferation
Procedure: as §1, §5, §6, §7, §4

[17] = system: LnCaP prostate cancer cell line; assay: Alamar Blue cell proliferation assay; format: cell-based; conditions: Homo sapiens, 10% FBS, 72 hours, read-out: EC50 (nM), IC50 values for inhibition of cell proliferation
Procedure: as §1, §5, §6, §7, §4

[18] = system: MCF7 breast cancer cell line; assay: Alamar Blue cell proliferation assay; format: cell-based; conditions: Homo sapiens, MCF7, 72 h, MCF7, 10% FBS, read-out: EC50 (nM), IC50 values for inhibition of cell proliferation
Procedure: as §1, §5, §6, §7, §4

MDA-MB-231 cells = assay: Protein synthesis, 14C-Leucine incorporation (Cytostar-T); format: cell-based, human; conditions: all time-points
Procedure: (§8) As described in “Leucine Uptake [^14C] Cytostar-T assay, Amersham Biosciences” (CFA773).
(§9) And incubated overnight in growth medium. The next day medium was carefully aspirated (8-channel Vacuboy) and 50 μL of fresh pre-warmed medium (10% FCS, 10 mM HEPES pH 7.2-7.5) was added. Cells were allowed to equilibrate at 37° C. for 60 min. Test compounds were added in 50 μL medium and ^14C-leucine was added in 100 μL medium (0.5 μCi mL−1 final). Plates were sealed with transparent, adhesive foil. Plates were then incubated in a 37° C. for 6 h in a humidified incubator. Incorporation of radioactive leucine into proteins (a measure of protein synthesis) was then read by coincidence scintillation (counts per minute (CPM)) using a Wallac Microbeta detector at the indicated time-intervals. A reading a t=0 (5 min after sealing plates) for each well is subtracted as background.

MDA-MB-468 cells = assay: as above; format: cell-based, human; conditions: all time-points
Procedure: as §8, §9

MDA-MB-468 tumours = assay: Xenograft studies using MDA-MB-468 tumours; format: in vivo, mice
MCF-7 tumours = assay: Xenograft studies using MCF-7 tumours; format: in vivo, mice
Procedure: Nude balb/c mice weighing 25-45 grams are implanted with MCF-7 tumours by subcutaneous implantation in both flanks. […] Tumour volume is determined once or twice/week.

[19] = system: mTOR pathway proteins (p70S6K, S6, 4E-BP1, AKT, cyclin D3) in MDA-468 cells; assay: Western Blots on proteins involved in translational control; format: cell-based, human; conditions: MDA-468, 24 hour incubation
Procedure: 16-24 hours after, the growth medium were shifted to growth medium containing compounds.
After 24 or 48 hours incubation with compounds, cells were washed with ice cold PBS buffer and harvested in lysis buffer: Cytobuster reagent (Novagen) containing phosphatase inhibitor cocktail 1 and 2 and protease inhibitor cocktail (Sigma). Samples containing an equal amount of protein were loaded onto 7% Tris Acetate gels, 10% Bis-Tris in MES buffer or 12% Bis-Tris gels using MOPS running buffer (Invitrogen). Following electrophoresis the samples were blotted onto a PVDF membrane (Invitrogen). For membrane blocking and antibody incubations of p70 S6K, Phospho-p70 S6K (Thr389), PathscanI and S6 antibodies (Cell Signalling Technology) a buffer containing 0.2% Tween-20, 5% non-fat dry milk, 5% FBS, in Tris buffered Saline (TBS) were used. For immunoblotting of 4EBP1, Phospho 4EBP1 (Thr37/46), Phospho 4EBP1 (Ser65) (Cell Signalling Technology) and Cyclin D3 (Santa Cruz) a protocol from Cell Signalling Technology were used. Cell Signalling Technology blocking buffer contains 0.1% Tween-20, 5% non fat dry milk in TBS and primary antibody dilution buffer contains 0.1% Tween-20, 5% BSA in TBS. Before adding primary antibody dilution buffer to the membranes, the blots were rinsed briefly in 0.1% Tween-20. […] Peroxidase activity was detected using the ECL detection system (Amersham Biosciences).

[20] = monotherapy, PO daily for 15 days or IV weekly for 4 weeks

O=C1Nc2ccccc2C1(c1ccc(O)cc1)c1ccc(O)cc1 [Oxyphenisatine]
Potency relative to Compound 3, prostate cell line panel [1]: lower potency than Compound 3 | Potency relative to Compound 3, breast cell line panel [2]: slightly lower in potency | IC50 ([3]; Homo sapiens, PC-3, 10% FBS, 72 hours, read-out: EC50 (nM), IC50 values for inhibition of cell proliferation): 899 nM | IC50 [4]: 285 nM | IC50 [5]: > 3000 nM | IC50 [6]: > 3000 nM | IC50 [7]: 324 nM | IC50 [8]: > 3000 nM | IC50 [9]: 935 nM | IC50 [10]: 324 nM | IC50 [11]: 228 nM | IC50 [12]: > 3000 nM | IC50 [13]: 912 nM | IC50 [14]: 527 nM | IC50 [15]: 859 nM | IC50 [16]: > 3000 nM | IC50 [17]: 790 nM | IC50 [18]: 517 nM

COc1ccc(C[C@H]2NC[C@H](O)[C@H]2OC(C)=O)cc1 [Anisomycin]
Effect of control compounds on 14C-Leucine incorporation (MDA-MB-231 cells): completely inhibit | Effect of control compounds on 14C-Leucine incorporation (MDA-MB-468 cells): completely inhibit

C[C@@H]1C[C@@H]([C@H](O)CC2CC(=O)NC(=O)C2)C(=O)[C@@H](C)C1 [Cycloheximide]
Effect of control compounds on 14C-Leucine incorporation (MDA-MB-231 cells): completely inhibit | Effect of control compounds on 14C-Leucine incorporation (MDA-MB-468 cells): completely inhibit

O=C1Nc2c(ccc(F)c2F)C1(c1ccc(O)cc1)c1ccc(O)cc1 [Compound 41, 6,7-Difluoro-3,3-bis-(4-hydroxy-phenyl)-1,3-dihydro-indol-2-one]
Rate of tumour growth, MDA-MB-468 xenograft (MDA-MB-468 tumours; [20]): reduces the rate of MDA-MB-468 human breast cancer tumour cell growth | Tumour regression, MDA-MB-468 xenograft (MDA-MB-468 tumours; monotherapy, PO or IV): induces tumour regression at all doses tested; also recorded: more pronounced tumour regression at all doses tested | Effect compared with paclitaxel, MDA-MB-468 xenograft (MDA-MB-468 tumours; mouse, in vivo): more pronounced than following administration of paclitaxel; also recorded: more effective than paclitaxel | Per-oral versus intravenous dosing, MDA-MB-468 xenograft (MDA-MB-468 tumours; mouse, in vivo): equally effective by per-oral and intravenous dosing | Tumour size / growth, MCF-7 xenograft (MCF-7 tumours; [20]): reduces the rate of MCF-7 human breast cancer tumour cell growth; also recorded: reduces the size of MCF7 tumours | Tumour regression, MCF-7 xenograft (MCF-7 tumours; monotherapy, PO or IV): induces tumour regression at all doses tested; also recorded: tumour regression is noted using all doses tested | Effect compared with paclitaxel, MCF-7 xenograft (MCF-7 tumours; mouse, in vivo): more pronounced than following administration of paclitaxel; also recorded: appears to be greater than paclitaxel | Per-oral versus intravenous dosing, MCF-7 xenograft (MCF-7 tumours; mouse, in vivo): equally effective by the per-oral and intravenous dosing | Effect on proliferation of PC-3 ([3]; 10% FBS): inhibit the proliferation

CO[C@H]1C[C@@H]2CC[C@@H](C)[C@@](O)(O2)C(=O)C(=O)N2CCCC[C@H]2C(=O)O[C@H]([C@H](C)C[C@@H]2CC[C@@H](O)[C@H](OC)C2)CC(=O)[C@H](C)/C=C(\C)[C@@H](O)[C@@H](OC)C(=O)[C@H](C)C[C@H](C)/C=C/C=C/C=C/1C [rapamycin]
AKT phosphorylation on Ser473 (Western blot) [19]: not inhibited
